This is an account of results in ChEMBL document CHEMBL3044591, “Biological Activity of Some 2-Arylamino-4-aryloxyacetyl-2-1, 3, 4-thiadiazolidine Derivatives” (1994).

Type in all cases: functional
For one experiment, the system named is Sorghum halepense. As to the kind of experiment: Herbicidal activity against Sorghum halepense (Johnson grass) assessed as killing at 6 kg/ha by post-emergent activity assay.
Experiment [1] relates to Aspergillus niger. The experiment is described as follows: Fungicidal activity against Aspergillus niger assessed as inhibition at 10 ppm measured after 96 hr by agar growth technique.
Experiment [2] relates to Aspergillus niger. The experiment is described as follows: Fungicidal activity against Aspergillus niger assessed as inhibition at 1000 ppm measured after 96 hr by agar growth technique.
The subject of experiment [3] is Bipolaris oryzae. As to the kind of experiment: Fungicidal activity against Bipolaris oryzae assessed as inhibition at 1000 ppm measured after 96 hr by agar growth technique.
For experiment [4], the system named is Bipolaris oryzae. The experiment is described as follows: Fungicidal activity against Bipolaris oryzae assessed as inhibition at 10 ppm measured after 96 hr by agar growth technique.
In a further experiment the test system is Abutilon theophrasti. The experiment is described as follows: Herbicidal activity against Abutilon theophrasti (velvetleaf) assessed as killing at 6 kg/ha by post-emergent activity assay.
The subject of experiment [5] is Aspergillus niger. As to the kind of experiment: Fungicidal activity against Aspergillus niger assessed as inhibition at 100 ppm measured after 96 hr by agar growth technique.
A further experiment has as its system Triticum aestivum. As to the kind of experiment: Herbicidal activity against Triticum aestivum (wheat) assessed as killing at 6 kg/ha by post-emergent activity assay.
Experiment [6] relates to Bipolaris oryzae. The experiment is described as follows: Fungicidal activity against Bipolaris oryzae assessed as inhibition at 100 ppm measured after 96 hr by agar growth technique.
A further experiment concerns Echinochloa crus-galli. The experiment is described as follows: Herbicidal activity against Echinochloa crus-galli (barnyard grass) assessed as killing at 6 kg/ha by post-emergent activity assay.
For another experiment, the system named is Setaria viridis. The experiment is described as follows: Herbicidal activity against Setaria viridis (green foxtail) assessed as killing at 6 kg/ha by post-emergent activity assay.

Take `COc1ccc(NC2=NN(C(=O)COc3ccccc3Cl)C(c3ccccc3)S2)cc1` (stereo unspecified): the Activity is 90% in the experiment on Sorghum halepense; 100% with Abutilon theophrasti; 10% in the experiment with Triticum aestivum; 100% in the experiment with Echinochloa crus-galli; 100% in the experiment on Setaria viridis. In addition, the inhibition at 10 ppm in the experiment with Aspergillus niger [1] and with Bipolaris oryzae [4] was 44% throughout. Also, the inhibition at 1000 ppm with Aspergillus niger [2] worked out at 65%; in the experiment on Bipolaris oryzae [3] it was 63%. In addition, the inhibition at 100 ppm in the experiment with Aspergillus niger [5] came out at 59%; in the experiment on Bipolaris oryzae [6], 58%.
Regarding `Cc1cccc(OCC(=O)N2N=C(Nc3ccc(Cl)cc3)SC2(C)C)c1`, the Activity was 60% in the experiment on Sorghum halepense; 40% with Abutilon theophrasti; 10% in the experiment on Triticum aestivum; 50% in the experiment on Echinochloa crus-galli; 50% in the experiment with Setaria viridis. For the same compound, the inhibition at 10 ppm with Aspergillus niger [1] is 48%; in the experiment on Bipolaris oryzae [4], 38%. Moreover, the inhibition at 1000 ppm came out at 63% with Aspergillus niger [2] and 59% in the experiment with Bipolaris oryzae [3]. Moreover, the inhibition at 100 ppm in the experiment on Aspergillus niger [5] is 54%; in the experiment on Bipolaris oryzae [6], 47%.
As for `Cc1cccc(OCC(=O)N2N=C(Nc3ccccc3)SC2c2ccccc2)c1` (stereo unspecified), the Activity came out at 60% in the experiment with Sorghum halepense; 60% with Abutilon theophrasti; 0% with Triticum aestivum; 60% in the experiment with Echinochloa crus-galli; 60% in the experiment on Setaria viridis. Also, the inhibition at 10 ppm with Aspergillus niger [1] is 38%; with Bipolaris oryzae [4], 39%. Besides, the inhibition at 1000 ppm with Aspergillus niger [2] stood at 67%; in the experiment on Bipolaris oryzae [3], 61%. In addition, the figures for the inhibition at 100 ppm in the experiment on Aspergillus niger [5] and in the experiment on Bipolaris oryzae [6] were 54% and 49%, respectively.
In the case of `O=C(COc1ccccc1Cl)N1N=C(Nc2ccccc2)SC1c1ccccc1` (stereo unspecified), the Activity in the experiment with Sorghum halepense is listed as 60%; in the experiment on Abutilon theophrasti it was 50%; with Triticum aestivum, 20%; in the experiment on Echinochloa crus-galli it was 50%; in the experiment on Setaria viridis, 50%. Also, the results for the inhibition at 10 ppm with Aspergillus niger [1] and in the experiment on Bipolaris oryzae [4] were 77% and 75%, respectively. The inhibition at 1000 ppm in the experiment on Aspergillus niger [2] is 92%; with Bipolaris oryzae [3], 90%. Also, the inhibition at 100 ppm in the experiment with Aspergillus niger [5] came out at 82%; with Bipolaris oryzae [6], 80%.
Take `CC1(C)SC(Nc2ccccc2)=NN1C(=O)COc1ccccc1Cl`: the Activity with Sorghum halepense stood at 70%; in the experiment with Abutilon theophrasti, 40%; with Triticum aestivum, 20%; with Echinochloa crus-galli, 60%; in the experiment on Setaria viridis it was 50%. Moreover, the inhibition at 10 ppm in the experiment with Aspergillus niger [1] was found to be 51%; with Bipolaris oryzae [4], 31%. The values for the inhibition at 1000 ppm with Aspergillus niger [2] and in the experiment on Bipolaris oryzae [3] were 56% and 52%, respectively. The inhibition at 100 ppm is 44% in the experiment with Aspergillus niger [5] and 42% with Bipolaris oryzae [6].
Regarding `Cc1ccc(NC2=NN(C(=O)COc3ccccc3Cl)C(c3ccccc3)S2)cc1` (stereo unspecified), the Activity in the experiment with Sorghum halepense is given as 60%; in the experiment on Abutilon theophrasti it was 40%; in the experiment on Triticum aestivum, 30%; in the experiment on Echinochloa crus-galli it was 50%; in the experiment on Setaria viridis it was 50%. Besides, the inhibition at 10 ppm in the experiment on Aspergillus niger [1] was found to be 43%; in the experiment on Bipolaris oryzae [4] it was 39%. Further, the inhibition at 1000 ppm was found to be 65% in the experiment on Aspergillus niger [2] and 60% in the experiment with Bipolaris oryzae [3]. Also, the inhibition at 100 ppm with Aspergillus niger [5] amounted to 52%; in the experiment on Bipolaris oryzae [6], 50%.
Take `Cc1ccc(NC2=NN(C(=O)COc3cccc(C)c3)C(c3ccccc3)S2)cc1` (stereo unspecified): the Activity in the experiment on Sorghum halepense worked out at 50%; in the experiment with Abutilon theophrasti it was 60%; in the experiment with Triticum aestivum it was 10%; in the experiment with Echinochloa crus-galli, 30%; in the experiment on Setaria viridis it was 20%. For the same compound, the inhibition at 10 ppm in the experiment with Aspergillus niger [1] is 47%; in the experiment with Bipolaris oryzae [4], 46%. The inhibition at 1000 ppm came to 70% in the experiment with Aspergillus niger [2] and 68% in the experiment on Bipolaris oryzae [3]. Moreover, the inhibition at 100 ppm came out at 62% in the experiment with Aspergillus niger [5] and 61% with Bipolaris oryzae [6].
As for `Cc1ccc(NC2=NN(C(=O)COc3ccccc3Cl)C(C)(C)S2)cc1`, the Activity with Sorghum halepense is on record as 50%; in the experiment with Abutilon theophrasti it was 50%; in the experiment on Triticum aestivum, 30%; with Echinochloa crus-galli, 20%; in the experiment on Setaria viridis, 50%. Further, the inhibition at 10 ppm was found to be 49% with Aspergillus niger [1] and 32% with Bipolaris oryzae [4]. In addition, the inhibition at 1000 ppm was determined as 63% with Aspergillus niger [2] and 56% in the experiment on Bipolaris oryzae [3]. The inhibition at 100 ppm in the experiment with Aspergillus niger [5] was found to be 52%; in the experiment with Bipolaris oryzae [6], 44%.
For the compound `Cc1cccc(OCC(=O)N2N=C(Nc3ccc(Cl)cc3)SC2c2ccccc2)c1` (stereo unspecified), the Activity in the experiment with Sorghum halepense is reported as 60%; in the experiment on Abutilon theophrasti it was 50%; in the experiment with Triticum aestivum, 15%; in the experiment with Echinochloa crus-galli it was 60%; in the experiment on Setaria viridis, 50%. Also, the inhibition at 10 ppm in the experiment with Aspergillus niger [1] was 40%; with Bipolaris oryzae [4], 38%. Moreover, the inhibition at 1000 ppm came out at 62% in the experiment with Aspergillus niger [2] and 58% with Bipolaris oryzae [3]. Also, the results for the inhibition at 100 ppm with Aspergillus niger [5] and in the experiment on Bipolaris oryzae [6] were 49% and 48%, respectively.
As to `O=C(COc1ccccc1Cl)N1N=C(Nc2ccc(Cl)cc2)SC1c1ccccc1` (stereo unspecified), the Activity in the experiment on Sorghum halepense was found to be 40%; in the experiment with Abutilon theophrasti it was 50%; in the experiment on Triticum aestivum, 25%; in the experiment on Echinochloa crus-galli, 60%; in the experiment with Setaria viridis it was 60%. Besides, the inhibition at 10 ppm in the experiment on Aspergillus niger [1] and with Bipolaris oryzae [4] was 78% throughout. Also, the inhibition at 1000 ppm in the experiment with Aspergillus niger [2] and in the experiment with Bipolaris oryzae [3] was 92% each time. In addition, the inhibition at 100 ppm with Aspergillus niger [5] is 83%; in the experiment on Bipolaris oryzae [6] it was 80%.
Regarding `CC1(C)SC(Nc2ccccc2)=NN1C(=O)COc1ccc(Cl)cc1`, the Activity turned out to be 60% in the experiment on Sorghum halepense; 40% in the experiment on Abutilon theophrasti; 0% in the experiment on Triticum aestivum; 50% in the experiment with Echinochloa crus-galli; 40% in the experiment with Setaria viridis. Moreover, the inhibition at 10 ppm in the experiment with Aspergillus niger [1] was 45%; in the experiment on Bipolaris oryzae [4], 59%. The inhibition at 1000 ppm in the experiment on Aspergillus niger [2] worked out at 78%; in the experiment on Bipolaris oryzae [3], 76%. Further, the figures for the inhibition at 100 ppm in the experiment with Aspergillus niger [5] and in the experiment with Bipolaris oryzae [6] were 69% and 67%, respectively.
Turning to `COc1ccc(NC2=NN(C(=O)COc3cccc(C)c3)C(c3ccccc3)S2)cc1` (stereo unspecified), the Activity in the experiment on Sorghum halepense is on record as 100%; in the experiment on Abutilon theophrasti it was 100%; with Triticum aestivum, 10%; in the experiment with Echinochloa crus-galli, 100%; in the experiment with Setaria viridis, 100%. Moreover, the figures for the inhibition at 10 ppm in the experiment with Aspergillus niger [1] and with Bipolaris oryzae [4] were 51% and 50%, respectively. Further, the inhibition at 1000 ppm worked out at 74% with Aspergillus niger [2] and 72% in the experiment on Bipolaris oryzae [3]. Also, the inhibition at 100 ppm in the experiment with Aspergillus niger [5] is 67%; with Bipolaris oryzae [6] it was 65%.
In the case of `CC1(C)SC(Nc2ccc(Cl)cc2)=NN1C(=O)COc1ccccc1Cl`, the Activity in the experiment on Sorghum halepense was determined as 30%; in the experiment on Abutilon theophrasti, 40%; with Triticum aestivum it was 10%; in the experiment with Echinochloa crus-galli it was 50%; in the experiment on Setaria viridis, 50%. The inhibition at 10 ppm with Aspergillus niger [1] was found to be 49%; in the experiment with Bipolaris oryzae [4] it was 39%. The values for the inhibition at 1000 ppm in the experiment on Aspergillus niger [2] and with Bipolaris oryzae [3] were 62% and 58%, respectively. Moreover, the values for the inhibition at 100 ppm in the experiment on Aspergillus niger [5] and in the experiment with Bipolaris oryzae [6] were 50% and 48%, respectively.
On to `COc1ccc(NC2=NN(C(=O)COc3ccccc3Cl)C(C)(C)S2)cc1`, for which the Activity in the experiment on Sorghum halepense is given as 100%; in the experiment on Abutilon theophrasti, 100%; in the experiment on Triticum aestivum it was 10%; in the experiment with Echinochloa crus-galli, 100%; in the experiment with Setaria viridis, 100%. For the same compound, the inhibition at 10 ppm came out at 37% in the experiment on Aspergillus niger [1] and 31% in the experiment on Bipolaris oryzae [4]. The results for the inhibition at 1000 ppm with Aspergillus niger [2] and in the experiment on Bipolaris oryzae [3] were 65% and 60%, respectively. The inhibition at 100 ppm in the experiment on Aspergillus niger [5] turned out to be 56%; with Bipolaris oryzae [6], 53%.
Take `COc1ccc(NC2=NN(C(=O)COc3cccc(C)c3)C(C)(C)S2)cc1`: the Activity with Sorghum halepense was 100%; in the experiment with Abutilon theophrasti, 100%; with Triticum aestivum, 10%; in the experiment with Echinochloa crus-galli it was 100%; in the experiment on Setaria viridis, 100%. Further, the inhibition at 10 ppm in the experiment with Aspergillus niger [1] was 43%; with Bipolaris oryzae [4], 36%. Also, the results for the inhibition at 1000 ppm in the experiment on Aspergillus niger [2] and with Bipolaris oryzae [3] were 69% and 65%, respectively. Further, the inhibition at 100 ppm with Aspergillus niger [5] amounted to 58%; in the experiment on Bipolaris oryzae [6], 54%.
Turning to `Cc1ccc(NC2=NN(C(=O)COc3cccc(C)c3)C(C)(C)S2)cc1`, the Activity turned out to be 50% in the experiment on Sorghum halepense; 30% in the experiment with Abutilon theophrasti; 15% in the experiment with Triticum aestivum; 60% in the experiment on Echinochloa crus-galli; 20% with Setaria viridis. In addition, the inhibition at 10 ppm in the experiment with Aspergillus niger [1] was 54%; in the experiment with Bipolaris oryzae [4], 48%. In addition, the inhibition at 1000 ppm in the experiment with Aspergillus niger [2] was 75%; with Bipolaris oryzae [3], 71%. Also, the inhibition at 100 ppm in the experiment on Aspergillus niger [5] was found to be 68%; in the experiment with Bipolaris oryzae [6] it was 63%.
